The values that follow come from US12570673B2, “c-Myc protein inhibitor, and preparation method therefor and use thereof” (SUZHOU KINTOR PHARMACEUTICALS, INC., priority 2019, dated 2026).

Each structure is given as a SMILES string.

The assay concerns HL60 cells. Put plainly: Anti-cancer activity test, MTT, HL60 cells. The note with it: Homo sapiens, HL-60, culturing for 72 hours. It counts as cell-based. Here is the method: Cell culture medium: Roswell medium RPMI-1640 (+L-glutamine) was added with 10% fetal bovine serum, with 100 units penicillin and 100 μg streptomycin per ml.
Cell culture conditions: 5% CO2, 95% humidity, cultured at 37° C. constant temperature.
2. Cell Inoculation, Drugs Dosing and Culture.
Logarithmic growth phase HL-60, human chronic myeloid leukemia cells (K562), human esophageal squamous cell carcinoma cells (KYSE510), human large cell lung cancer cells (H460) were inoculated into 96-well cell culture plates, 2×10^4 cells per well. Different concentrations of active compounds (dissolved in dimethyl sulfoxide (DMSO) stock solution) were added, so that the final concentration of DMSO was 0.2%, and the control group was DMSO. Each group was repeated three times.
After culturing for 72 hours, 20 µL of thiazolyl blue (MTT) (5 mg/ml, ready for use, dissolved in 1×PBS for cell culture) was added to each well, and incubated at 37° C. for 3 hours.
The 96-well cell culture plates were centrifuged at 1000 rpm for 10 minutes. The supernatant was discarded; 200 μL of DMSO was added to each well and the plate was shaken for 5 minutes.
The absorbance of each well was detected at 570 nm wavelength with a microplate reader, and the IC50 of the compounds was calculated.

One may read the IC50 as the concentration that inhibits the measured activity by half. A high value points to weaker potency in that assay. As for `COc1ccc2cc(C(=O)N[C@@H](Cc3c[nH]c4ccccc34)C(=O)N[C@@H](CC(C)C)B(O)O)ccc2c1` [Compound A87], the IC50 was under 100 nM.

`CC(C)C[C@H](NC(=O)[C@H](Cc1c[nH]c2ccccc12)NC(=O)c1nc2ccccc2s1)B(O)O` [Compound A73] yielded an IC50 of under 100 nM.

`CC(C)C[C@H](NC(=O)[C@H](Cc1c[nH]c2ccccc12)NC(=O)OCC1c2ccccc2-c2ccccc21)B1O[C@@H]2C[C@@H]3C[C@@H](C3(C)C)[C@]2(C)O1` [Compound A18] registered a half-inhibitory concentration (IC50) of under 100 nM. The figure for `CC(C)C[C@H](NC(=O)[C@H](CC(C)C)NC(=O)Cn1c2ncccc2c2cccnc21)B(O)O` [Compound A107] is 500 to 2000 nM; for `CC(C)C[C@H](NC(=O)[C@H](Cc1c[nH]c2ccccc12)NC(=O)CC1CC1)B(O)O` [Compound A70] it is under 100 nM; for `CC(C)C[C@H](NC(=O)[C@H](Cc1cn(C(=O)OC(C)(C)C)c2ccccc12)NC(=O)OCC1c2ccccc2-c2ccccc21)B1O[C@@H]2C[C@@H]3C[C@@H](C3(C)C)[C@]2(C)O1` [Compound A8] it is under 100 nM. Next, `CC(C)C[C@H](NC(=O)[C@H](CC(=O)NC(c1ccccc1)(c1ccccc1)c1ccccc1)NC(=O)OCC1c2ccccc2-c2ccccc21)B1O[C@@H]2C[C@@H]3C[C@@H](C3(C)C)[C@]2(C)O1` [Compound A1]: under 100 nM; `CC(C)C[C@H](NC(=O)[C@H](Cc1c[nH]c2ccccc12)NC(=O)NC1CCCC1)B(O)O` [Compound A77]: under 100 nM; `CC(C)C[C@H](NC(=O)[C@H](Cc1c[nH]c2ccccc12)NC(=O)OC1CCCC1)B(O)O` [Compound A78]: under 100 nM.

Take `CC(C)C[C@H](NC(=O)[C@H](Cc1c[nH]c2ccccc12)NC(=O)c1ccc2cc(N)ccc2c1)B(O)O` [Compound A88]: the half-inhibitory concentration (IC50) was under 100 nM. Turning to `CC(C)C[C@H](NC(=O)[C@H](Cc1c[nH]c2ccccc12)NC(=O)c1ccncc1)B1O[C@@H]2C[C@@H]3C[C@@H](C3(C)C)[C@]2(C)O1` [Compound A33], the IC50 lay in the range of 500 to 2000 nM. The figure for `CC(C)C[C@H](NC(=O)[C@H](CC(C)C)NC(=O)Cn1c2ccccc2c2ccc(OCc3ccccc3)cc21)B(O)O` [Compound A105] is 100 to 500 nM. Next, `CC(C)C[C@H](NC(=O)[C@H](C)NC(=O)c1cccc2c1C(=O)N(C1CCC(=O)NC1=O)C2=O)B1O[C@@H]2C[C@@H]3C[C@@H](C3(C)C)[C@]2(C)O1` (stereo partly drawn) [Compound A54]: 2000 to 10000 nM; `CC(C)C[C@H](NC(=O)[C@H](Cc1c[nH]c2ccccc12)NC(=O)CC12CC3CC(CC(C3)C1)C2)B(O)O` [Compound A68]: 100 to 500 nM; `CC(C)C[C@H](NC(=O)[C@H](Cc1c[nH]c2ccccc12)NS(=O)(=O)Cc1ccccc1)B1O[C@@H]2C[C@@H]3C[C@@H](C3(C)C)[C@]2(C)O1` [Compound A32]: under 100 nM. Next, `CC(C)C[C@H](NC(=O)[C@H](CC(C)C)NC(=O)CN(c1ccccc1)c1ccccc1)B(O)O` [Compound A93]: 500 to 2000 nM. `CC(C)C[C@H](NC(=O)[C@H](Cc1c[nH]c2ccccc12)NC(=O)c1ccc2ccccc2c1)B(O)O` [Compound A76] returned an IC50 of under 100 nM.

For the molecule `COC(=O)C[C@H](NC(=O)CC1c2ccccc2-c2ccccc21)C(=O)N[C@@H](CC(C)C)B1O[C@@H]2C[C@@H]3C[C@@H](C3(C)C)[C@]2(C)O1` [Compound A47], the half-maximal inhibitory concentration (IC50) was under 100 nM. Consider `CC(C)C[C@H](NC(=O)[C@H](CC(C)C)NC(=O)Cn1c2cc(Cl)ccc2c2ccc(Cl)cc21)B(O)O` [Compound A100], for which the IC50 is 500 to 2000 nM. Next, `CC(C)C[C@H](NC(=O)[C@H](CC(C)C)NC(=O)OCC1c2ccccc2-c2ccccc21)B(O)O` [Compound A65]: under 100 nM; `COC(=O)C[C@H](NC(=O)OCC1c2ccccc2-c2ccccc21)C(=O)N[C@@H](CC(C)C)B1O[C@@H]2C[C@@H]3C[C@@H](C3(C)C)[C@]2(C)O1` [Compound A16]: under 100 nM; `CC(C)C[C@H](NC(=O)[C@H](Cc1c[nH]c2ccccc12)NC(=O)CC1CC1)B1O[C@@H]2C[C@@H]3C[C@@H](C3(C)C)[C@]2(C)O1` [Compound A31]: under 100 nM. For `COc1ccc2cc(C(=O)N[C@@H](Cc3c[nH]c4ccccc34)C(=O)N[C@@H](CC(C)C)B3O[C@@H]4C[C@@H]5C[C@@H](C5(C)C)[C@]4(C)O3)ccc2c1` [Compound A52], the 50% inhibitory concentration (IC50) was under 100 nM. Next, `COC(=O)CC[C@H](NC(=O)OCC1c2ccccc2-c2ccccc21)C(=O)N[C@@H](CC(C)C)B1O[C@@H]2C[C@@H]3C[C@@H](C3(C)C)[C@]2(C)O1` [Compound A14]: under 100 nM; `CC(C)C[C@H](NC(=O)[C@H](Cc1c[nH]c2ccccc12)NS(=O)(=O)Cc1ccccc1)B(O)O` [Compound A71]: under 100 nM; `CC(C)C[C@H](NC(=O)[C@H](C)NC(=O)c1cccc2c1C(=O)N(C1CCC(=O)NC1=O)C2=O)B(O)O` (stereo partly drawn) [Compound A91]: 2000 to 10000 nM.

On to `CC(C)C[C@H](NC(=O)[C@H](Cc1c[nH]c2ccccc12)NC(=O)OCc1ccccc1)B(O)O` [Compound A66], for which the half-inhibitory concentration (IC50) was under 100 nM.

With `CC(C)C[C@H](NC(=O)[C@H](C)NC(=O)OCC1c2ccccc2-c2ccccc21)B(O)O` [Compound A86], the IC50 is under 100 nM.

With `CC(C)C[C@H](NC(=O)[C@H](CC(C)C)NC(=O)CN(c1ccccc1)c1ccccc1)B1O[C@@H]2C[C@@H]3C[C@@H](C3(C)C)[C@]2(C)O1` [Compound A55], the IC50 fell in the range of 500 to 2000 nM. The figure for `CC(C)C[C@H](NC(=O)[C@H](CCc1ccccc1)NC(=O)OCC1c2ccccc2-c2ccccc21)B1O[C@@H]2C[C@@H]3C[C@@H](C3(C)C)[C@]2(C)O1` [Compound A17] is under 100 nM; for `CC(C)C[C@H](NC(=O)[C@H](CC(=O)NC(c1ccccc1)(c1ccccc1)c1ccccc1)NC(=O)OCC1c2ccccc2-c2ccccc21)B(O)O` [Compound A89] it is 100 to 500 nM. Consider `CC(C)C[C@H](NC(=O)[C@H](Cc1cn(C(=O)OC(C)(C)C)c2ccccc12)NC(=O)C12CC3CC(C1)C(=O)C(C3)C2)B1O[C@@H]2C[C@@H]3C[C@@H](C3(C)C)[C@]2(C)O1` [Compound A28], for which the IC50 was in the range of 500 to 2000 nM. The figure for `COc1ccc2c3ccccc3n(CC(=O)N[C@@H](CC(C)C)C(=O)N[C@@H](CC(C)C)B(O)O)c2c1` [Compound A95] is 500 to 2000 nM; for `CC(C)C[C@H](NC(=O)[C@H](Cc1c[nH]c2ccccc12)NC(=O)NC1CCCC1)B1O[C@@H]2C[C@@H]3C[C@@H](C3(C)C)[C@]2(C)O1` [Compound A44] it is under 100 nM; for `CC(C)C[C@H](NC(=O)[C@H](CC(C)C)NC(=O)Cn1c2ccccc2c2cc(F)ccc21)B1O[C@@H]2C[C@@H]3C[C@@H](C3(C)C)[C@]2(C)O1` [Compound A60] it is 500 to 2000 nM.

As for `CC(C)C[C@H](NC(=O)[C@H](CC(C)C)NC(=O)Cn1c2ccccc2c2cc(F)ccc21)B(O)O` [Compound A98], the half-maximal inhibitory concentration (IC50) lay in the range of 500 to 2000 nM. The figure for `CC(C)C[C@H](NC(=O)[C@H](CC(C)C)NC(=O)Cn1c2ccccc2c2ncccc21)B(O)O` [Compound A104] is 100 to 500 nM; for `CC(C)C[C@H](NC(=O)[C@H](CC(C)C)NC(=O)Cn1c2ccccc2c2ccc(C#N)cc21)B1O[C@@H]2C[C@@H]3C[C@@H](C3(C)C)[C@]2(C)O1` [Compound A61] it is 100 to 500 nM; for `CC(C)C[C@H](NC(=O)[C@H](Cc1c[nH]c2ccccc12)NC(=O)c1nc2ccccc2s1)B1O[C@@H]2C[C@@H]3C[C@@H](C3(C)C)[C@]2(C)O1` [Compound A34] it is 100 to 500 nM. The figure for `CC(C)C[C@H](NC(=O)[C@H](CC(C)C)NC(=O)Cn1c2ccccc2c2ccncc21)B(O)O` [Compound A92] is 100 to 500 nM; for `CC(C)C[C@H](NC(=O)[C@H](CC(C)C)NC(=O)Cn1c2ccccc2c2cccnc21)B1O[C@@H]2C[C@@H]3C[C@@H](C3(C)C)[C@]2(C)O1` [Compound A56] it is 500 to 2000 nM; for `CC(C)C[C@H](NC(=O)[C@H](C)NC(=O)c1ccc2c(c1)C(=O)N(C1CCC(=O)NC1=O)C2=O)B1O[C@@H]2C[C@@H]3C[C@@H](C3(C)C)[C@]2(C)O1` (stereo partly drawn) [Compound A53] it is 2000 to 10000 nM. Next, `CC(C)C[C@H](NC(=O)[C@H](CC(C)C)NC(=O)Cn1c2ccccc2c2cnccc21)B1O[C@@H]2C[C@@H]3C[C@@H](C3(C)C)[C@]2(C)O1` [Compound A58]: 100 to 500 nM; `C[C@H](NC(=O)[C@H](CCCCNC(=O)OC(C)(C)C)NC(=O)OCC1c2ccccc2-c2ccccc21)B1O[C@@H]2C[C@@H]3C[C@@H](C3(C)C)[C@]2(C)O1` [Compound A23]: 100 to 500 nM; `CC(C)C[C@H](NC(=O)[C@H](Cc1c[nH]c2ccccc12)NC(=O)c1ccncc1)B(O)O` [Compound A72]: 500 to 2000 nM.

The molecule `CC(C)C[C@H](NC(=O)[C@H](Cc1c[nH]c2ccccc12)NC(=O)c1cnc2ccccc2c1)B1O[C@@H]2C[C@@H]3C[C@@H](C3(C)C)[C@]2(C)O1` [Compound A36] showed an IC50 of under 100 nM.

In turn, `CC(C)C[C@H](NC(=O)[C@H](CC(C)C)NC(=O)Cn1c2ccccc2c2ccc(Cl)cc21)B(O)O` [Compound A99] showed an IC50 of 100 to 500 nM. The figure for `CC(C)C[C@H](NC(=O)[C@H](CC(C)C)NC(=O)Cn1c2ccc(Br)cc2c2cc(Br)ccc21)B1O[C@@H]2C[C@@H]3C[C@@H](C3(C)C)[C@]2(C)O1` [Compound A40] is 500 to 2000 nM.
